Measurements: patent publication US20150017673A1, “COMPOSITIONS AND METHODS FOR DRUG-SENSITIZATION OR INHIBITION OF A CANCER CELL” (priority 2012, published 2015)
Where two headings read alike, the source gives them in different places. One block for each compound: values may come before it.

Key:
lymphoma cell line G3 = test: Cell growth assay (resazurin fluorescence) on CHOP-resistant G3 NHL cells; format: cell-based, human
Procedure: (§1) Compositions were tested on CHOP-resistant G3 NHL cells that had been cultivated in RPMI medium for five days. Prior to assay, the cells were counted by haemocytometer and cell concentration standardized to 625,000 cells/ml. Test drugs were solubilized in 100% DMSO and then diluted to final assay concentration with 0.1M phosphate buffered saline (PBS) and a final DMSO concentration of 0.5%. Cells were added to assay plates containing the test drugs (rifabutin+148 ng/ml, 74 ng/ml, 37 ng/ml, or 0 ng/ml doxorubicin) and allowed to incubate for 96 hours at 37° C. and 5% CO2. The metabolic dye rezasurin was added to the wells of the assay plate at a final concentration of 20 μg/ml and the plates were incubated for an additional 24 hours. The plates were then read in a BMG Polarstar plate reader at wavelength (573-605) and the data plotted as OD versus increasing dilutions (i.e. decreasing total amounts) of rifabutin derivative concentration.

[1] = test system: multi-drug resistant sarcoma cell line MES-SA-Dx5; test: Cell growth assay on MES-SA-Dx5 cells; format: cell-based; details: MES-SA-Dx5, uterus sarcoma
Procedure: as §1
(§2) In these experiments, the following cell lines were used: CHOP-resistant NHL cell line G3, CHOP-sensitive NHL cell line CRL2631, the multi-drug resistant sarcoma cell line MES-SA-Dx5; multi-drug-resistant breast cancer cell line MDA-MB-231, multi-drug resistant ovarian carcinoma cell line SK-OV3, multi-drug resistant ovarian cancer cell line NCI/ADR-RES, drug-sensitive ovarian cancer cell line OVCAR-5, and multi-drug resistant ovarian cancer cell line OVCAR-3.
(§3) Additional cell lines used include: ovarian cancer OVCAR-8, T lymphoblastoid leukemia MOLT-4, dexamethasone-resistant multiple myeloma MM.1R, myeloid leukemia cells HL-60, osteosarcoma cells U-2 OS, and myeloma RPMI 8226.

[2] = test system: multi-drug-resistant breast cancer cell line MDA-MB-231; test: Cell growth assay on MDA-MB-231 cells; format: cell-based; details: MDA-MB-231, breast carcinoma
Procedure: as §1, §2, §3

[3] = test system: multi-drug resistant ovarian carcinoma cell line SK-OV3; test: Cell growth assay on SK-OV3 cells; format: cell-based, human; details: for IC50: Homo sapiens, SK-OV-3
Procedure: as §1
as §2, with “OVCAR-3. […]” for “OVCAR-3.”

[4] = test system: multi-drug resistant ovarian cancer cell line OVCAR-3; test: Cell growth assay on OVCAR-3 cells; format: cell-based; details: OVCAR-3, ovarian carcinoma
Procedure: as §1
as §2, with “OVCAR-3. […]” for “OVCAR-3.”

[5] = test system: drug-sensitive ovarian cancer cell line OVCAR-5; test: Cell growth assay on OVCAR-5 cells; format: cell-based; details: OVCAR-5, ovarian carcinoma
Procedure: as §1, §2, §3

[6] = test system: multi-drug resistant ovarian cancer cell line NCI/ADR-RES; test: Cell growth assay on NCI/ADR-RES cells; format: cell-based; details: NCI/ADR-RES, ovarian carcinoma
Procedure: as §1, §2, §3

[7] = mice treated with RTI-79 with or without DOX
Procedure: Swiss mice were dosed with levels equal to and exceeding that of intended doses.

[8] = test system: multi-drug resistant ovarian cancer cell line (NCI/ADR-RES); test: NCI/ADR-RES xenograft efficacy studies in nude mice; format: in vivo; details: DOXIL 7 mg/kg i.v. + RTI-79 25 mg/kg oral
Source text: In a sixth efficacy study, we generated xenografts of multi-drug resistant ovarian cancer cell line (NCI/ADR-RES) by implantation of NCI/ADR-RES cell xenografts in the left and right flanks of nude mice, resulting in two tumors per mice. […] Tumor size was monitored.
In a seventh efficacy study, we generated xenografts of multi-drug resistant ovarian cancer cell line (NCI/ADR-RES) by implantation of NCI/ADR-RES cells xenografts in the left and right flanks of nude mice, resulting in two tumors per mouse. […] Tumor size was monitored.

ROS in G3 lymphoma cells = test: Intracellular ROS (CellROX, flow cytometry) in G3 cells; format: cell-based, human; details: for total intracellular ROS: 10 uM, 2 hrs
Procedure: (§4) Cells were then stained with the fluorescent ROS indicator, CellROX, and subjected to flow cytometry to quantitate total intracellular ROS.
The electron transport chain (ETC) is known to be a primary generator of ROS in the cell. Most of the ROS is generated by Complexes I and III of the ETC Inhibition of Complex I results in electrons piling up and leaking to react with oxygen to produce ROS.
(§5) All samples were analyzed at the same time in flow cytometry.

[9] = test system: ROS in ADR-RES ovarian cells; test: Intracellular ROS (CellROX, flow cytometry) in ADR-RES cells; format: cell-based; details: 10 uM, 2 hrs
Source text: as §4

[10] = test system: ROS in OVCAR8 ovarian cells; test: Intracellular ROS (CellROX, flow cytometry) in OVCAR8 cells; format: cell-based; details: 10 uM, 2 hrs, degree much less than in resistant lines
Source text: as §4

calcium in G3 cells = test: Calcium mobilization (Fluo-4AM, flow cytometry); format: cell-based, human; details: for calcium mobilization: Dox-resistant cells (G3R, 10R, WSUR), 10 uM, 2 hrs, FIG. 41B/41C
Procedure: MDR/P-gp activity is closely associated with calcium status in the cell, so calcium modulators were tested for effects on ROS. […] Relatively Dox-sensitive lymphoma (CRL2631, 10S, WSU) and ovarian carcinoma (OVCAR8) and more Dox-resistant lymphoma (G3R,10R, WSUR) and ovarian carcinoma (ADR) were treated with 10 uM […] for 2 hrs. […] Cells were co-stained with the cell-permeable red fluorescent ROS indicator, CellROX, and cell-permeable green fluorescent calcium indicator, Fluo-4AM, and then subjected to flow cytometry to quantitate changes in ROS and calcium levels.
as §5

MMP2 = MMP2 secretion ELISA in U2-OS cells; format: cell-based; details: 5 uM RTI-79, U2-OS cells; reduced from 22.4
VEGF = VEGF secretion ELISA in U2-OS cells; format: cell-based; details: RTI-79, U2-OS cells; decrease from 998
[11] = Time to maximal RTI-79 plasma concentration; format: in vivo; details: after administration
[12] = test system: primary human fibroblasts; details: with and without 2 uM Dox
ABCB1 pumps = ABCB1 pumps (Homo sapiens, UniProt P08183)
ovarian cancer OVCAR-8 = test: Cell growth assay on OVCAR-8 cells; format: cell-based; details: for IC50: Homo sapiens
Procedure: as §1, §3

[13] = test system: osteosarcoma cells U-2 OS; test: Cell growth assay on U-2 OS cells; format: cell-based; details: for IC50: Homo sapiens, U2OS
Procedure: as §1, §3

[14] = test system: myeloid leukemia cells HL-60; test: Cell growth assay on HL-60 cells; format: cell-based; details: for IC50: Homo sapiens
Procedure: as §1, §3

myeloma RPMI 8226 = test: Cell growth assay on RPMI 8226 cells; format: cell-based; details: for IC50: Homo sapiens
Procedure: as §1, §3

[15] = therapeutic drug alone, read-out: IC50
[16] = therapeutic drug with Rifabutin, read-out: IC50 (μM) with Rifabutin

ABCB1 pumps, sequence (P08183 whole entry): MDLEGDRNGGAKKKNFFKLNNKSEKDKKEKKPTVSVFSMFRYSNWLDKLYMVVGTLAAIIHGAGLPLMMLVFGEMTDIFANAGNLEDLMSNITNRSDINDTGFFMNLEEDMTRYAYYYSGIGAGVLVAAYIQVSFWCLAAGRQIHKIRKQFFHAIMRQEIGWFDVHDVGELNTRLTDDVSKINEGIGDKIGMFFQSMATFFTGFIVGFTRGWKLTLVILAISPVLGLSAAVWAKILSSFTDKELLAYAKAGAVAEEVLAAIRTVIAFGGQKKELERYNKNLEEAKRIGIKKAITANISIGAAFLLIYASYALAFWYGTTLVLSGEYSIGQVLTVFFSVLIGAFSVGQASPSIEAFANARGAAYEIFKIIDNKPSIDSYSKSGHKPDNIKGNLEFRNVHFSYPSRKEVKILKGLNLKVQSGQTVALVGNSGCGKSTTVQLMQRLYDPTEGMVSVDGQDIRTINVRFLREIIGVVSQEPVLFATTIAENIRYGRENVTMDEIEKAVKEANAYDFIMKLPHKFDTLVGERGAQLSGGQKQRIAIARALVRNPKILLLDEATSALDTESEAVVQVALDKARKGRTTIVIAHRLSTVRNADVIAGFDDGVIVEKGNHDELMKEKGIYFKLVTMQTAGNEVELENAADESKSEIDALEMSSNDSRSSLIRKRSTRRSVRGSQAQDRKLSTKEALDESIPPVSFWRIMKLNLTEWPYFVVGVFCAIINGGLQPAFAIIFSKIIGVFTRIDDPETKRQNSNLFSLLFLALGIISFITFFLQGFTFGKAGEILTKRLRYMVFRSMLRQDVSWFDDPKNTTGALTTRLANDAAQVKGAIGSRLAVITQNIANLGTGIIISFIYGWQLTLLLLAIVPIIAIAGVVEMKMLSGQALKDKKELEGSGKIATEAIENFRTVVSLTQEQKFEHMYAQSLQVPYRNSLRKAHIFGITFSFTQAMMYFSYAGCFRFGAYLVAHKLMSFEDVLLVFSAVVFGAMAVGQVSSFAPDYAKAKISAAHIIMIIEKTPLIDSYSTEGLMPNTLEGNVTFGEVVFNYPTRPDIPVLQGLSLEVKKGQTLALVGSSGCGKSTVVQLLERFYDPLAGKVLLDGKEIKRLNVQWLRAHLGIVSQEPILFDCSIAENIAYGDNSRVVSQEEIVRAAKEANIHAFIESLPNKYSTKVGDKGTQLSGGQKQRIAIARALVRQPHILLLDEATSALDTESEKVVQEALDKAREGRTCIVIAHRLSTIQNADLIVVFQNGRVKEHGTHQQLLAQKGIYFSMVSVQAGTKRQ

Compound: COC1C=COC2(C)Oc3c(C)c(O)c4c(c3C2=O)C2=NC3(CCN(C(=O)OCC(C)C)CC3)NC2=C(NC(=O)C(C)=CC=CC(C)C(O)C(C)C(O)C(C)C(OC(C)=O)C1C)C4=O (centres unmarked) [RTI-79, 4-deoxy-3,4[2-spiro-[1-(isobutyloxycarbonyl)-piperidin-4-yl]]-(1H)-imidazo-(2,5-dihydro)rifamycin S]
Magnitude of potentiation in combination with doxorubicin (lymphoma cell line G3; G3, lymphoma B cells): ++ (potentiation between 2.1 to 5 fold increase)
IC50 (lymphoma cell line G3; analog alone, lymphoma cell line G3, read-out: IC50): 43 µM
IC50 (lymphoma cell line G3; with 1 μM doxorubicin, lymphoma cell line G3, read-out: IC50 (μM) with doxorubicin (1 μM)): 1.14 µM
Magnitude of potentiation in combination with doxorubicin [1]: ++ (potentiation between 2.1 to 5 fold increase)
Magnitude of potentiation in combination with doxorubicin [2]: + (potentiation between 1.2 to 2.0 fold increase)
Magnitude of potentiation in combination with doxorubicin ([3]; SK-OV3, ovarian carcinoma): +++ (potentiation greater than 5 fold increase)
Magnitude of potentiation in combination with doxorubicin [4]: + (potentiation between 1.2 to 2.0 fold increase)
Magnitude of potentiation in combination with doxorubicin [5]: + (potentiation between 1.2 to 2.0 fold increase)
Magnitude of potentiation in combination with doxorubicin [6]: ++ (potentiation between 2.1 to 5 fold increase)
heart histology (H&E), complete blood count and manual differential [7]: no significant differences
tumor volume lower than in mice receiving only DOXIL ([8]; seventh study (multiple, large tumors), after 46 days): 55%
tumor volume reduction during the course of the study ([8]; seventh study): 50%
tumor volume lower than in mice receiving only DOXIL ([8]; sixth study, after 41 days): 66%
time to first increase in ROS (ROS in G3 lymphoma cells; 10 uM RTI-79, 0 to 30 minutes): 1 min
total intracellular ROS (ROS in G3 lymphoma cells): induced ROS
total intracellular ROS [9]: induced ROS
total intracellular ROS [10]: induced ROS
calcium mobilization (calcium in G3 cells): induced both ROS and calcium mobilization
onset of calcium mobilization (calcium in G3 cells; G3 cells, 10 uM RTI-79, 0 to 30 minutes): > 15 min
MMP2 secretion (MMP2): 10.5 ng/million cells
VEGF secretion (VEGF): 436 pg/million cells
time to maximal plasma concentration [11]: ≤ 3 h
comparative cytotoxicity to normal cells [12]: not toxic to normal cells
inhibition of efflux pumps (ABCB1 pumps; NCI/ADR-RES and G3 cells): clear inhibition of efflux pumps
rank as inhibitor of ABCB1 among rifabutin derivatives (ABCB1 pumps; calcein-AM efflux): strongest inhibitor

Compound: O=C1c2c(O)ccc(O)c2C(=O)c2c(NCCNCCO)ccc(NCCNCCO)c21 [Mitoxantrone, mitoxantrone]
IC50 (lymphoma cell line G3; Homo sapiens, therapeutic drug alone, G3, read-out: IC50): 0.46 µM
IC50 (lymphoma cell line G3; Homo sapiens, therapeutic drug with Rifabutin, G3, read-out: IC50 (μM) with Rifabutin): 0.04 µM
Fold increase in potency (lymphoma cell line G3; with vs without Rifabutin, G3): 11.5 fold
IC50 ([3]; therapeutic drug alone, SK-OV3, read-out: IC50): > 32 µM
IC50 ([3]; therapeutic drug with Rifabutin, SK-OV3, read-out: IC50 (μM) with Rifabutin): 12.3 µM
Fold increase in potency ([3]; with vs without Rifabutin, SK-OV3): >2.6 fold
IC50 (ovarian cancer OVCAR-8; [15]): 14 µM
IC50 (ovarian cancer OVCAR-8; [16]): 3 µM
Fold increase in potency (ovarian cancer OVCAR-8; with vs without Rifabutin): 4.7 fold
IC50 [13, 15]: 0.14 µM
IC50 [13, 16]: 0.06 µM
Fold increase in potency ([13]; with vs without Rifabutin): 2.3 fold

Compound: COC(=O)[C@H]1[C@H]2C[C@@H]3c4[nH]c5cc(OC)ccc5c4CCN3C[C@H]2C[C@@H](OC(=O)c2cc(OC)c(OC)c(OC)c2)[C@@H]1OC [reserpine]
total intracellular ROS (ROS in G3 lymphoma cells): induced ROS
total intracellular ROS [9]: induced ROS
total intracellular ROS [10]: induced ROS

IC50 [14, 15]: 0.4 µM
IC50 [14, 16]: 0.2 µM
IC50 (myeloma RPMI 8226; [15]): 1 µM
IC50 (myeloma RPMI 8226; [16]): 0.89 µM
Compound: CC(=O)O[C@H]1C(=O)[C@@]2(C)[C@H]([C@H](OC(=O)c3ccccc3)[C@]3(O)C[C@H](OC(=O)[C@H](O)[C@@H](NC(=O)c4ccccc4)c4ccccc4)C(C)=C1C3(C)C)[C@]1(OC(C)=O)CO[C@@H]1C[C@@H]2O [Paclitaxel, paclitaxel]
Fold increase in potency ([14]; with vs without Rifabutin): 2 fold
Fold increase in potency (myeloma RPMI 8226; with vs without Rifabutin): 1.1 fold

Compound: COc1cc2c(cc1OC)CN(CCc1ccc(NC(=O)c3cccc4c(=O)c5cccc(OC)c5[nH]c34)cc1)CC2 [elacridar]
total intracellular ROS (ROS in G3 lymphoma cells): induced ROS
total intracellular ROS [9]: induced ROS
total intracellular ROS [10]: induced ROS
calcium mobilization (calcium in G3 cells): induced calcium in a similar manner as RTI-79
